Data: US12428400B2 (priority 2020, dated 2025)
Where two headings read alike, the source gives them in different places.

Test system: pathogens of rice blast
Format: cell-based
Details: 25° C., 7 days, elongation length of hyphae

Compound: COc1nc2nc3ccccc3n2c(F)c1C(F)(F)F [Example 4, 4-fluoro-2-methoxy-3-(trifluoromethyl)benzo[4,5]imidazo[1,2-a]pyrimidine]
- Control value (test solution 1000 ppm, 1,000 μl on oatmeal culture medium): 66
- Control value (test solution 2000 ppm, 1,000 μl on oatmeal culture medium): 96
